From ChEMBL document CHEMBL3611997, “4-Fluoro-3',4',5'-trimethoxychalcone as a new anti-invasive agent. From discovery to initial validation in an in vivo metastasis model” (Eur J Med Chem, 2015)
Values after ≈ are worked out from the molar mass of the structure shown. Active and inactive are the calls of the source. No cut-off for these calls is given here.

Legend:
[1] = Antiinvasive activity in human MCF7/6 cells assessed as Cmin for progressive occupation of chicken precultured heart tissue fragments after 8 days by chick heart invasion assay; assay type: functional
[2] = test system: SK-OV-3; assay: Antiinvasive activity in human in SKOV3 cells assessed as reduction of amount of cells present on filter at 0.1 umol/L after 24 hrs by matrigel invasion assay (reference value: 100%); assay type: functional; design: scale not given: the % may be the effect or the level left
[3] = Aqueous solubility of the compound in PBS at pH 7.4 at 200 umol/L; assay type: physicochemical
[4] = Aqueous solubility of the compound in simulated intestinal fluid at 200 umol/L; assay type: physicochemical
[5] = Octanol-phosphate buffer partition coefficient, log D of the compound at 100 umol/L at pH 7.4; assay type: physicochemical
[6] = Half life of the compound in PBS at pH 7.4 at 1 umol/L; assay type: ADME
[7] = Half life of the compound in simulated intestinal fluid at 1 umol/L; assay type: ADME
[8] = target: T1, CYP1A2 (Homo sapiens, UniProt P05177); assay: Inhibition of CYP1A2 (unknown origin) at 10 umol/L; assay type: ADME
T1 sequence (P05177 whole entry): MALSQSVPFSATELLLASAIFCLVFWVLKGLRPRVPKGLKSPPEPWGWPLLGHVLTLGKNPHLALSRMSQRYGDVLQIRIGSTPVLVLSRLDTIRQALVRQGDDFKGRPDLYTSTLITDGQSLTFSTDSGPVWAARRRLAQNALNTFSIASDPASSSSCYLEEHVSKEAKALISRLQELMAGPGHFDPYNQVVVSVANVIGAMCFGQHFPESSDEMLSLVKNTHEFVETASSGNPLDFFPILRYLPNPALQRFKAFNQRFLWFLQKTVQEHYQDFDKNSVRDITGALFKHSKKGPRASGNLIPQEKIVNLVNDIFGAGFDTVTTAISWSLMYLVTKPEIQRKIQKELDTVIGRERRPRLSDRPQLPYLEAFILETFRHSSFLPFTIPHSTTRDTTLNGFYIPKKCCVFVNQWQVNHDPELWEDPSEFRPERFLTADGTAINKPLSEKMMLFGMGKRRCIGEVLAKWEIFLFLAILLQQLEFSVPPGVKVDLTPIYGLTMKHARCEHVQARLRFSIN

[9] = target: CYP2D6 (Homo sapiens, UniProt P10635); assay: Inhibition of CYP2D6 (unknown origin) at 10 umol/L; assay type: ADME
[10] = Intrinsic clearance in Sprague-Dawley rat liver S9 fraction at 0.1 umol/L; assay type: ADME, subcellular; settings: read-out: CLH
[11] = Intrinsic clearance in Sprague-Dawley rat liver microsomes at 0.1 umol/L; assay type: ADME; settings: read-out: CLH
[12] = Permeability across apical to basolateral side of human Caco2 cells assessed as compound recovery at 10 umol/L at pH 7.4; assay type: ADME, cell-based; settings: Caco-2, pH 7.4, read-out: Drug recovery
[13] = Permeability across basolateral to apical side of human Caco2 cells at 10 umol/L at pH 7.4; assay type: ADME, cell-based; settings: Caco-2, pH 7.4, read-out: permeability
[14] = target: hERG (Homo sapiens, UniProt Q12809); assay: Inhibition of human ERG assessed as reduction of tail current at 0.1 umol/L
[15] = Toxicity in human HepG2 cells assessed as cell viability at 0.1 umol/L; assay type: cell-based; settings: read-out: Activity
[16] = Toxicity in human HepG2 cells assessed as cell viability at 1 umol/L; assay type: cell-based; settings: read-out: Activity
[17] = Toxicity in human HepG2 cells assessed as cell viability; assay type: cell-based; settings: HepG2 cells
[18] = test system: Mus musculus; assay: Toxicity in Swiss nu/nu mouse assessed as macroscopic anomalies at 1.6 to 160 mg/kg, ip administered three times a week for two-week period measured on day 15; assay type: organism-based; settings: in vivo
[19] = test system: Mus musculus; assay: Toxicity in Swiss nu/nu mouse assessed as hematological anomalies by measuring WBC count at 160 mg/kg, ip administered three times a week for two-week period measured on day 15 (reference value: 2420 +/- 782 /microL); assay type: organism-based; settings: in vivo
[20] = test system: Mus musculus; assay: Toxicity in Swiss nu/nu mouse assessed as hematological anomalies by measuring AST level at 16 mg/kg, ip administered three times a week for two-week period measured on day 15 (reference value: 254.2 +/- 144.6 IU/L); assay type: organism-based; settings: in vivo
[21] = test system: Mus musculus; assay: Toxicity in Swiss nu/nu mouse assessed as hematological anomalies by measuring ALT level at 160 mg/kg, ip administered three times a week for two-week period measured on day 15 (reference value: 29.6 +/- 5.6 IU/L); assay type: organism-based; settings: in vivo
[22] = test system: Mus musculus; assay: Toxicity in Swiss nu/nu mouse assessed as hematological anomalies by measuring creatinine level at 16 mg/kg, ip administered three times a week for two-week period measured on day 15 (reference value: 0.29 +/- 0.02 mg/dL); assay type: organism-based; settings: in vivo
[23] = test system: Mus musculus; assay: Toxicity in Swiss nu/nu mouse assessed as hematological anomalies by measuring creatinine level at 160 mg/kg, ip administered three times a week for two-week period measured on day 15 (reference value: 0.29 +/- 0.02 mg/dL); assay type: organism-based; settings: in vivo
[24] = test system: MCF7/6; assay: Inhibition of cell migration in human MCF7/6 cells at 0.01 to 10 umol/L after 24 hrs by wound scratch assay; assay type: functional, cell-based
[25] = Cytotoxicity against human MCF7/6 cells assessed as reduction of mitochondrial activity at 0.01 to 100 umol/L after 6 days by MTT assay; assay type: cell-based; settings: mcf7/6, 144 h
[26] = Cytotoxicity against human MCF7/6 cells assessed as reduction of mitochondrial activity at 10 to 100 umol/L after 8 days by MTT assay; assay type: cell-based; settings: mcf7/6, 192 h
[27] = test system: MCF10; assay: Cytotoxicity against human MCF10 cells assessed as reduction of cellular protein content at 0.01 to 100 umol/L after 6 days by SRB assay; assay type: cell-based; settings: mcf10, 144 h
[28] = test system: MDA-MB-231; assay: Cytotoxicity against human MDA-MB-231 cells expressing GFP assessed as reduction of mitochondrial activity at 0.01 to 100 umol/L after 6 days by MTT assay; assay type: cell-based; settings: mda-mb-231, 144 h
[29] = test system: MDA-MB-231; assay: Cytotoxicity against human MDA-MB-231 cells expressing GFP assessed as reduction of cellular protein content at 0.01 to 100 umol/L after 6 days by SRB assay; assay type: cell-based; settings: mda-mb-231, 144 h
[30] = test system: MDA-MB-231; assay: Cytotoxicity against human MDA-MB-231 cells expressing GFP-Luc assessed as reduction of cellular protein content at 0.01 to 100 umol/L after 6 days by SRB assay; assay type: cell-based; settings: mda-mb-231, 144 h
[31] = Cytotoxicity against human BLM cells assessed as reduction of mitochondrial activity at 0.01 to 1 umol/L after 24 hrs by MTT assay; assay type: cell-based
[32] = target: Vascular endothelial growth factor receptor 2 (Homo sapiens) (UniProt P35968); assay: Inhibition of human KDR using and Ulight-CAGAGAIETDKEYYTVKD as substrate at 0.1 umol/L after 1 hr by FRET assay
Chain of Vascular endothelial growth factor receptor 2 (Homo sapiens) (P35968 whole entry): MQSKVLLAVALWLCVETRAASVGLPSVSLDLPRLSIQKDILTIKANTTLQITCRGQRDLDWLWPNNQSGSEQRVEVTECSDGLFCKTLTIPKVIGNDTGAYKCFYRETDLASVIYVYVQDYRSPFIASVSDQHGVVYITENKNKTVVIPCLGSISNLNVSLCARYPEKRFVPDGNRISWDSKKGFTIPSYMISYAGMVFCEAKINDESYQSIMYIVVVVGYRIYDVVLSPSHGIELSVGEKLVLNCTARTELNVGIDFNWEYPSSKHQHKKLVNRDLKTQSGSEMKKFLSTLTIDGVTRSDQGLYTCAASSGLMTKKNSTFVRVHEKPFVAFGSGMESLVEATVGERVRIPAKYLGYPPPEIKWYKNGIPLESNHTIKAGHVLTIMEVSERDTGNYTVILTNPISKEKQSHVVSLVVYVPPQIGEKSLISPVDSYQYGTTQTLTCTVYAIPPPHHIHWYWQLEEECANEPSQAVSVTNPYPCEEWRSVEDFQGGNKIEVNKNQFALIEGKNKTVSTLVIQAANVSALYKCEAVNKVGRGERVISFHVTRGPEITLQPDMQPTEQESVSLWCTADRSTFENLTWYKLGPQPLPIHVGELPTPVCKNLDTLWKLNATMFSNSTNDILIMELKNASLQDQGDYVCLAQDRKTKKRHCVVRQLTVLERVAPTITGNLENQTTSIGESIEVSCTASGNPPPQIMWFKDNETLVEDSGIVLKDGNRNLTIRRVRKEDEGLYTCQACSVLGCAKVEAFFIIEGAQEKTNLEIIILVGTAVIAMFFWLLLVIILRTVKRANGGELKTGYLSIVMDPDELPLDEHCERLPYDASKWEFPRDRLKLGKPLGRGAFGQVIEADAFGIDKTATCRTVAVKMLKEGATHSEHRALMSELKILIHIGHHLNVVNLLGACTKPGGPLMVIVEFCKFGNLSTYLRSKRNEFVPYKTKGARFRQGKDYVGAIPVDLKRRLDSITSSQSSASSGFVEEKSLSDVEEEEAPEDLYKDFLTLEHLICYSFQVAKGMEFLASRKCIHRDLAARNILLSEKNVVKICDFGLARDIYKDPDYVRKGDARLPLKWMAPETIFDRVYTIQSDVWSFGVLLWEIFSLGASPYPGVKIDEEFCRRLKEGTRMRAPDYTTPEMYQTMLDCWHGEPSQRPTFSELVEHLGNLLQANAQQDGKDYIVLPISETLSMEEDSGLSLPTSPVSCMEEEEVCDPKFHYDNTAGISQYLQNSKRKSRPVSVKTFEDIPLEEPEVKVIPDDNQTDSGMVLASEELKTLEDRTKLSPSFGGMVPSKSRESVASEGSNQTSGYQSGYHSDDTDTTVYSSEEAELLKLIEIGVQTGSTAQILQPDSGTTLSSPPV

Chain of hERG (Q12809 whole entry): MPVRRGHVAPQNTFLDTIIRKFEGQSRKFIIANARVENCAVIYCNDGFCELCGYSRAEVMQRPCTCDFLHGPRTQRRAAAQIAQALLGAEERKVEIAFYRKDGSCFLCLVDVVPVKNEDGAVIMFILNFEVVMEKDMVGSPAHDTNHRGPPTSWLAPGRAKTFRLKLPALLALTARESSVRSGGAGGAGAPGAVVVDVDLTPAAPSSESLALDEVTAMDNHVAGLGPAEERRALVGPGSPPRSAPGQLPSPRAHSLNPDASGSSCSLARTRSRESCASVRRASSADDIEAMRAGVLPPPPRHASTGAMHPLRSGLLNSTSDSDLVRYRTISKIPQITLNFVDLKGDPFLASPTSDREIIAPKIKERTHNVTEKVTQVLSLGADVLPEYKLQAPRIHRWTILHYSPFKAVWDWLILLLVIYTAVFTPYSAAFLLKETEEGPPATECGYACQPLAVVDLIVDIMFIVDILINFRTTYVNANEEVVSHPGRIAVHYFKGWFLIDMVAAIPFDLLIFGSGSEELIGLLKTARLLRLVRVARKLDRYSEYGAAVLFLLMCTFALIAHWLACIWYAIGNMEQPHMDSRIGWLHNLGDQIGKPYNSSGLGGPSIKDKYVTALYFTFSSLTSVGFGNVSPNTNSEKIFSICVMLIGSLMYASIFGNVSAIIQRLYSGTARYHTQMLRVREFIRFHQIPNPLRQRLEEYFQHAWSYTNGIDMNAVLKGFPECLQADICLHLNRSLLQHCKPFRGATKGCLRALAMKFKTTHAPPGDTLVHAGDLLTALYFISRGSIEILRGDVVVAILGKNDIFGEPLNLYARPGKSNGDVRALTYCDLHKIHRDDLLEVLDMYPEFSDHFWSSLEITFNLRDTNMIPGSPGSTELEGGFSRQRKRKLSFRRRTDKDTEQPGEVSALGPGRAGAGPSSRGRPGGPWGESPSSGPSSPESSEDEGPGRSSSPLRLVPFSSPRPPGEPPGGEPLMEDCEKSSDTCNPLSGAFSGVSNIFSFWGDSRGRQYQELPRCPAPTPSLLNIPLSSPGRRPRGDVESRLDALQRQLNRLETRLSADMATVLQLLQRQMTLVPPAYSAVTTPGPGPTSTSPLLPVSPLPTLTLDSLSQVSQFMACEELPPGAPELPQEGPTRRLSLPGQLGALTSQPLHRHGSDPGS
Chain of CYP2D6 (P10635 whole entry): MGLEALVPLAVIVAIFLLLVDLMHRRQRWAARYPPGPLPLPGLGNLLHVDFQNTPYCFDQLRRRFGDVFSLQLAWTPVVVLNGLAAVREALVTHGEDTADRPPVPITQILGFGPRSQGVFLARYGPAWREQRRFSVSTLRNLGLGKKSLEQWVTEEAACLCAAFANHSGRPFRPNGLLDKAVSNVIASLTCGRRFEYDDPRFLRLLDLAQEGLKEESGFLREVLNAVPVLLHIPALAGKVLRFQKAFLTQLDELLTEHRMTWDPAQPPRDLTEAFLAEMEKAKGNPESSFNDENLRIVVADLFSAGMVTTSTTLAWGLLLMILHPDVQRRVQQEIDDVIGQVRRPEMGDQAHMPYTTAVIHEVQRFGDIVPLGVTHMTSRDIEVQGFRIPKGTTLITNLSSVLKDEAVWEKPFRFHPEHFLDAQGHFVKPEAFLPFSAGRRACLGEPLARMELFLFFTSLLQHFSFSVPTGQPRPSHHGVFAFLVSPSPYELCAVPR

**Q.** Which results are given for `COc1cc(C(=O)/C=C/c2ccc(F)cc2)cc(OC)c1OC`?
**A.** Cmin [1]: 0.01 µmol/L; Activity [2]: 85%; solubility at 200 µM [3]: 2.4 µM (≈ 0.759 µg/mL); solubility at 200 µM [4]: 7.9 µM (≈ 2.5 µg/mL); logD at 100 µM [5]: 3.85; half-life at 1 µM [6]: > 4 h; half-life at 1 µM [7]: > 4 h; inhibition at 10 µM [8]: 35.7%; inhibition at 10 µM [9]: 18.9%; microsomal CLint at 0.1 µM [10]: 116 µL/min/mg; microsomal CLint at 0.1 µM [11]: 339 µL/min/mg; recovery at 10 µM [12]: 17%; Papp B→A at 10 µM [13]: 4.9 ×10⁻⁶ cm/s; inhibition at 0.1 µM [14]: 3.7%; viability at 0.1 µM [15]: 93.7%; viability at 1 µM [16]: 93.8%; EC50 [17]: 10 µM; Activity [18]: Non-toxic; Activity [19]: 3180 µL⁻¹; Activity [20]: 167.5 IU/L; Activity [21]: 33.2 IU/L; Activity [22]: 0.32 mg/dL; Activity [23]: 0.28 mg/dL; inhibition [24]: inactive; Activity [25]: Non-toxic; Activity [26]: Toxic; Activity [27]: Non-toxic; Activity [28]: Non-toxic; Activity [29]: Non-toxic; Activity [30]: Non-toxic; Activity [31]: Non-toxic; inhibition [32]: -3.5%
